Biological target: T1, human N-acylethanolamine acid amidase (hNAAA) (Homo sapiens, UniProt Q02083)
T1 construct: expressed in transfected cells; lysosome-enriched lysate
T1 sequence (Q02083 29-359): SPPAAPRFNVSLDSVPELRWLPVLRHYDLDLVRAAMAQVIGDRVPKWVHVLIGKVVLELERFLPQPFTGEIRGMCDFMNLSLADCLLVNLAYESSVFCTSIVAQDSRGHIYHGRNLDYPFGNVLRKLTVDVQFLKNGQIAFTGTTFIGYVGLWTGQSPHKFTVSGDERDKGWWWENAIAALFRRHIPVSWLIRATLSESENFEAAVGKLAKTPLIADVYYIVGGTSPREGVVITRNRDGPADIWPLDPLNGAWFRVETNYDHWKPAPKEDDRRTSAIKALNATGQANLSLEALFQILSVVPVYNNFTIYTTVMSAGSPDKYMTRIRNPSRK
Test: Fluorogenic hNAAA assay
Format: biochemical
Details: at up to 125 μM
Description: HEK-293 cells stably transfected with the hNAAA coding sequence cloned from a human spleen cDNA library (catalog no. 639124, Clontech, Mountain View, CA, USA) were used as the enzyme source. Cells were grown in DMEM containing 10% FBS, 1% glutamine, 1 mM sodium pyruvate, and 500 μg/mL G418. Cells were harvested and pellets were stored at −80 °C until lysosomal-enriched lysate preparation. Cells were suspended in 20 mM Tris HCl (pH 7.4) with 0.32 M sucrose, sonicated, and centrifuged at 800 × g for 30 min at 4 °C. Supernatants were then ultracentrifuged at 12 000 × g for 30 min at 4 °C. Pellets were re-suspended in PBS buffer (pH 7.4) and subjected to three freeze–thaw cycles at −80 °C. The suspension was finally ultracentrifuged at 105 000 × g for 1 h at 4 °C, supernatants were collected, protein concentration was measured, and samples aliquoted and stored at −80 °C until use.
The assay was run in 96-well microplates (Black OptiPlate-96 F; PerkinElmer, Massachusetts, USA) in a total reaction volume of 200 μL. hNAAA protein preparation (4.0 μg) was pre-incubated for 30 min with various concentrations of test compounds or vehicle control (DMSO 5%) in 100 mM citrate/phosphate buffer (pH 4.5) containing 3.0 mM dithiothreitol (DTT), 0.1% NP40 0.1%, 0.05% bovine serum albumin, and 150 mM NaCl. […]

For `CCCCCNC(=O)n1cc(-c2ccc(F)cc2C2CCN(C)CC2)oc1=O` [Compound 32b, 5-[4-Fluoro-2-(1-methyl-4-piperidyl)phenyl]-2-oxo-N-pentyl-oxazole-3-carboxamide], the “effect against hNAAA” value was “no effect”.

Source: article PMC7770833, “Design, Synthesis, and Biological Evaluation of a Series of Oxazolone Carboxamides as a Novel Class of Acid Ceramidase Inhibitors” (Journal of Medicinal Chemistry, 2020)
